Reference: US20060241183A1, “Compositions and methods of using D-DOPA to treat Parkinson's disease” (priority 2004, published 2006)

Tests used:
[1] = tested on: urinary excretion of dopamine; details: D- and L-DOPA 50 mg/kg; cited from earlier work
circling = details: rats with unilateral 6-hydroxydopamine lesion; cited from earlier work
[2] = tested on: striatal dopamine and its metabolites (DOPAC and HVA); experiment: Striatal dopamine, DOPAC and HVA after intraventricular administration of L-DOPA, D-DOPA or DHPPA; type: in vivo, Sprague-Dawley rats; details: for Striatal DOPAC / Striatal Dopamine / Striatal HVA: intraventricular, 10 μl, 2 h after treatment, mean ± S.E.M.
Method: The present example illustrates the possible involvement of DHPPA in the formation of dopamine from D-DOPA. […] In an attempt to examine an alternate pathway, four groups of Sprague-Dawley rats weighing 120-150 grams with cannulae permanently implanted into their lateral ventricles, according to the procedure described in Robinson et al., Physiol. Behav. 4, 123-124, (1969), were used. One group received 10 μl. of saline into the ventricles. The second, third and fourth groups received, intraventricularly, 200.μ.g of L-DOPA, D-DOPA and 3,4-dihydroxyphenylpyruvic acid (DHPPA) in 10 μl of saline, respectively. The rats were sacrificed two hours after treatment and their striata removed and analyzed. Striatal concentrations of dopamine, DOPAC and HVA were measured by massfragmentography according to the procedure set forth in Karoum, Neuromethods.

[3] = biological target: T1, L-amino acid decarboxylase (Homo sapiens, UniProt P20711); details: cited from earlier work
T1 sequence (P20711 1-480): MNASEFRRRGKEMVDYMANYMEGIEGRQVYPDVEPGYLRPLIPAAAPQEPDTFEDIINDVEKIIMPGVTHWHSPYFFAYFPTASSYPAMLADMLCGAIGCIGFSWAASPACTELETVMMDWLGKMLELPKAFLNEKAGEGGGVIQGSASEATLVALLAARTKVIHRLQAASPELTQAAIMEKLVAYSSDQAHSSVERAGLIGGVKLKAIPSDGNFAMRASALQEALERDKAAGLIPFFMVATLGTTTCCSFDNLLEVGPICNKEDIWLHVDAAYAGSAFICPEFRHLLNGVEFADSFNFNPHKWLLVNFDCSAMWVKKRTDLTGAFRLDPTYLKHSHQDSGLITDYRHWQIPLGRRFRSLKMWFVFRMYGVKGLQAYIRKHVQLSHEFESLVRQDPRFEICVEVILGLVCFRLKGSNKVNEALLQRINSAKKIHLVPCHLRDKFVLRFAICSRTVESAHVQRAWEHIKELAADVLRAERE

[4] = tested on: striatal concentration of dopamine, DOPAC and HVA; experiment: Striatal dopamine, DOPAC and HVA after intragastric D- or L-DOPA plus carbidopa in rats with unilateral substantia nigra lesions; type: in vivo, male Sprague-Dawley Rats; details: for time for formation of dopamine in the striatum to reach its maximum concentration: after intragastric administration, inferred from DOPAC and HVA in lesion striata; for time to achieve maximum concentration of dopamine in the central nervous system: following intragastric administration; for increase of dopamine and its metabolites in the intact striata, D- versus L-DOPA / time at which dopamine content in the intact striata peaked / change of dopamine concentrations in the lesion striata: intragastric administration; for change of concentrations of DOPAC and HVA in the lesion striata: one hour after treatment
Text: The present example illustrates the efficacy of the administration of D-DOPA of L-DOPA in vivo. In order to show the effectiveness of D-DOPA for increasing striatal dopamine content, male Sprague-Dawley Rats (Zivic-Miller, Allison Park, Pa.) weighing 300 to 400 grams were used. At least four weeks prior to the experiments, unilateral Substantia Nigra lesions were produced with intranigral administration of 6-hydroxydopamine according to the procedures set forth in Ungerstedt, Acta Physiol. Scand. (Suppl.) 367, 69 (1971).
The extent of unilateral Substantia Nigra lesions was tested by measuring apomorphine simulated rotation according to the procedures described in Understedt, supra, 1971; Freed et al. Ann. Neurol. 8, 510 (1980).
Either D- or L-DOPA was intragastrically administered to the rats in combination with carbidopa at doses of 50 mg/kg body weight of D-DOPA or L-DOPA and 5 mg/kg body weight of carbidopa, suspended in sterile water, to provide a pharmaceutically acceptable solution for administration. D- or L-DOPA was intragastrically administered to groups of five rats, which were sacrificed one or two hours after treatment. The left (intact) and right (lesioned) striata of these rats were excised and analyzed separately for the content of dopamine and its metabolites 3,4-dihydroxyphenylacetic acid (DOPAC) and homovanillic acid (HVA), according to the procedure as set forth in Karoum, Neuromethods, Vol. 2 (G. B. Baker, A. A. Boulton and J. M. Baker eds.), The Humana Press, Inc., New Jersey, page 305, 1985 (referred to hereafter as “Karoum, Neuromethods”).

[5] = tested on: striatal dopamine or its metabolites; experiment: Repeated intragastric administration of DHPPA plus carbidopa, striatal dopamine and metabolites; type: in vivo; details: concluded from repeated intragastric administration
hypothalamic dopamine = experiment: Hypothalamic dopamine and metabolites after intragastric D- and L-DOPA; type: in vivo; details: after intragastric administration
Text: DHPPA can be formed from D-DOPA by either of two pathways, that is, direct transamination, or through deamination by D-amino acid oxidase, an enzyme widely distributed in the brain. The pattern of changes of striatal dopamine and its metabolites observed after intragastric administration of D- and L-DOPA are similar to those observed in the hypothalamus.

| SMILES | reduction of urinary excretion of dopamine following D-DOPA compared with co-administration with L-DOPA [1] | induction of circling (circling) | Striatal DOPAC [2] | Striatal Dopamine [2] | Striatal HVA [2] | substrate for L-amino acid decarboxylase [3] | time for formation of dopamine in the striatum to reach its maximum concentration [4] | time to achieve maximum concentration of dopamine in the central nervous system [4] | increase of dopamine and its metabolites in the intact striata, D- versus L-DOPA [4] | time at which dopamine content in the intact striata peaked [4] | change of dopamine concentrations in the lesion striata [4] | change of concentrations of DOPAC and HVA in the lesion striata [4] | elevations of dopamine and DOPAC compared with D- or L-DOPA ([2]; intraventricular administration) | crossing of the blood brain barrier [5] | increases in hypothalamic DOPAC and HVA, L-DOPA versus D-DOPA (hypothalamic dopamine) |
| --- | --- | --- | --- | --- | --- | --- | --- | --- | --- | --- | --- | --- | --- | --- | --- |
| C[C@@](Cc1ccc(O)c(O)c1)(NN)C(=O)O [Carbidopa, carbidopa] | to a far greater degree | – | – | – | – | – | – | – | – | – | – | – | – | – | – |
| N[C@H](Cc1ccc(O)c(O)c1)C(=O)O [D-DOPA] | – | can induce circling | 19 ± 0.92 ng/mg protein | 116 ± 5.1 ng/mg protein | 4.8 ± 0.50 ng/mg protein | not a substrate | within one hour | 2 h | to about the same extent | two hours | Neither D- nor L-DOPA increased dopamine concentrations | markedly increased | – | – | – |
| O=C(O)C(=O)Cc1ccc(O)c(O)c1 [DHPPA, 3,4-dihydroxyphenylpyruvic acid] | – | – | 96 ± 16.6 ng/mg protein | 140 ± 11.0 ng/mg protein | 23.3 ± 3.53 ng/mg protein | – | – | – | – | – | – | – | larger elevations | does not easily cross the blood brain barrier | – |
| N[C@@H](Cc1ccc(O)c(O)c1)C(=O)O [L-DOPA] | – | – | 59 ± 9.49 ng/mg protein | 120 ± 7.4 ng/mg protein | 22.2 ± 1.60 ng/mg protein | – | within one hour | 1 h | to about the same extent | one hour | Neither D- nor L-DOPA increased dopamine concentrations | markedly increased | – | – | considerably higher |
